Reference: patent US12589101B2, “Cyclodextrin protein drug conjugates” (Regeneron Pharmaceuticals, Inc., priority 2017, dated 2026)
In brackets after ≈: the same amount, converted by molar mass. Read-outs that look alike come from different tables or passages of the source.

Test: Solubility of linker-payloads (LC-MS standard curve, saturated solution)
Format: physicochemical
Settings: water, thermodynamic from solid
Protocol: The following test assays the solubility of the linker-payloads with a cyclodextrin moiety and the linker-payloads without a cyclodextrin moiety.
The test compounds were dissolved in DMSO to build a standard curve using LC-MS method A or B. The test sample was dissolved in water and sonicated for 10 minutes, and then centrifuged. The upper clear solution was analyzed using the same method A or B and the solubility was calculated based on its peak area.
Detailed test procedures were as follows: • 1. […] 0.05 mg of compound was suspended in water (1 mL) and sonicated for 10 minutes. After centrifugation, the clear solution above was collected to provide the saturated sample solution. • 3. All the standard solutions A, B, C, D, E and sample solution were analyzed by LCMS (using the same method and same injection volume) to obtain the peak areas. • 4. Calculate the standard curve according to the data of A-D (X=concentration, Y=peak areas). • 5. Calculate to obtain the concentration of saturated sample solution according to the functions obtained above.

| Compound | solubility at 10 min (Aq. Solubility (mg/mL)) [µg/mL] | solubility at 10 min (Solubility) [µg/mL] | solubility at 10 min (aqueous, read-out: Aq. Solubility) [µg/mL] | solubility at 10 min (read-out: Solubility) [µg/mL] |
| --- | --- | --- | --- | --- |
| CC(C)[C@H](NC(=O)[C@@H](CCCCNC(=O)CCOCCOCCOCCOCCNC(=O)COC1CCCCCc2nnn(CC3OC4OC5C(CO)OC(OC6C(CO)OC(OC7C(CO)OC(OC8C(CO)OC(OC9C(CO)OC(OC3C(O)C4O)C(O)C9O)C(O)C8O)C(O)C7O)C(O)C6O)C(O)C5O)c21)NC(=O)CCOCCOCCOCCOCCNC(=O)OCC1C2CCC#CCCC21)C(=O)N[C@@H](CCCNC(N)=O)C(=O)Nc1ccc(COC(=O)NCCOc2ccc3c(c2)[C@@]2(C)CCC[C@](C)(C(=O)NC(=O)[C@@]4(C)CCC[C@]5(C)c6cc(O)ccc6CC[C@@H]45)[C@@H]2CC3)cc1 (stereo partly drawn) [Ex52, BCN-PEG4-D-Lys(PEG4-COT-CD)-vcPAB-1e] | 300 (≈ 102 µM) | 290 (≈ 98.7 µM) | – | – |
| CC(C)[C@H](NC(=O)[C@@H](CCCCNC(=O)COC1CCCCCc2c1nnn2CC1OC2OC3C(CO)OC(OC4C(CO)OC(OC5C(CO)OC(OC6C(CO)OC(OC7C(CO)OC(OC1C(O)C2O)C(O)C7O)C(O)C6O)C(O)C5O)C(O)C4O)C(O)C3O)NC(=O)CCOCCOCCOCCOCCNC(=O)CCC(=O)N1Cc2ccccc2C#Cc2ccccc21)C(=O)N[C@@H](CCCNC(N)=O)C(=O)Nc1ccc(COC(=O)N[C@@H](CO)C(=O)Nc2ccc3c(c2)[C@@]2(C)CCC[C@](C)(C(=O)NC(=O)[C@@]4(C)CCC[C@]5(C)c6cc(O)ccc6CC[C@@H]45)[C@@H]2CC3)cc1 (stereo partly drawn) [Ex56, DIBAC-suc-PEG4-D-Lys(COT-CD)-vcPAB-1g] | < 100 | < 100 | – | – |
| CC(C)[C@H](NC(=O)[C@@H](CCCCNC(=O)COC1CCCCCc2c1nnn2CC1OC2OC3C(CO)OC(OC4C(CO)OC(OC5C(CO)OC(OC6C(CO)OC(OC7C(CO)OC(OC1C(O)C2O)C(O)C7O)C(O)C6O)C(O)C5O)C(O)C4O)C(O)C3O)NC(=O)CCOCCOCCOCCOCCNC(=O)OCC1C2CCC#CCCC21)C(=O)N[C@@H](C)C(=O)Nc1ccc2c(c1)[C@@]1(C)CCC[C@](C)(C(=O)NC(=O)[C@@]3(C)CCC[C@]4(C)c5cc(O)ccc5CC[C@@H]34)[C@@H]1CC2 (stereo partly drawn) [Ex54, BCN-PEG4-D-Lys(COT-CD)-Val-Ala-1d] | 300 (≈ 124 µM) | – | – | – |
| CC(C)[C@H](NC(=O)[C@@H](CCCCNC(=O)CCOCCOCCOCCOCCNC(=O)COC1CCCCCc2nnn(CC3OC4OC5C(CO)OC(OC6C(CO)OC(OC7C(CO)OC(OC8C(CO)OC(OC9C(CO)OC(OC3C(O)C4O)C(O)C9O)C(O)C8O)C(O)C7O)C(O)C6O)C(O)C5O)c21)NC(=O)CCOCCOCCOCCOCCNC(=O)OCC1C2CCC#CCCC21)C(=O)N[C@@H](C)C(=O)Nc1ccc2c(c1)[C@@]1(C)CCC[C@](C)(C(=O)NC(=O)[C@@]3(C)CCC[C@]4(C)c5cc(O)ccc5CC[C@@H]34)[C@@H]1CC2 (stereo partly drawn) [Ex51, BCN-PEG4-D-Lys(PEG4-COT-CD)-Val-Ala-1d] | 180 (≈ 67.7 µM) | 330 (≈ 124 µM) | – | – |
| CC[C@H](C)[C@@H]([C@@H](CC(=O)N1CCC[C@H]1[C@H](OC)[C@@H](C)C(=O)N[C@H](C)[C@@H](O)c1ccccc1)OC)N(C)C(=O)[C@@H](NC(=O)[C@H](C(C)C)N(C)C(=O)OCc1ccc(NC(=O)[C@H](CCCNC(N)=O)NC(=O)[C@@H](NC(=O)[C@@H](CCCCNC(=O)CCC(=O)N2Cc3ccccc3C#Cc3ccccc32)NC(=O)CCCCCN2C(=O)CC(N3CCN(CC4OC5OC6C(CO)OC(OC7C(CO)OC(OC8C(CO)OC(OC9C(CO)OC(OC%10C(CO)OC(OC4C(O)C5O)C(O)C%10O)C(O)C9O)C(O)C8O)C(O)C7O)C(O)C6O)CC3)C2=O)C(C)C)cc1)C(C)C (stereo partly drawn) [Ex38] | – | – | 500 (≈ 180 µM) | 250 (≈ 90.2 µM) |
